row,SMILES,melting point [°C]
1,CC1CCN(CCC(=O)Nc2ccc3c(=O)c4ccc(NC(=O)CCN5CCC(C)CC5)cc4[nH]c3c2)CC1,> 320
2,C=CCN(CC=C)c1ccc2[nH]c3cnc(-c4nc(CC)no4)nc3c2c1,175 to 184
3,O=[N+]([O-])c1ccc2[nH]c(C(F)(F)F)cc2c1,190 to 193
4,Cn1c(-c2ccc(Cl)c(S(N)(=O)=O)c2)csc1=Nc1ccc(O)cc1,274
5,COc1ccc(Nc2nc(Cl)cc3ccccc23)cc1,101
6,CCOC(=O)c1ccc(/C=C(\C)c2ccc3c(c2)C(C)(C)CCN3C)cc1,100 to 101
7,Cc1oc(-c2ccccc2)nc1COc1ccc(C=CC=O)cc1C(F)(F)F,138 to 139
8,CC(Cn1cncn1)c1ccc(Cl)cc1Cl (centres undefined),79.5
9,Cc1nnc(-c2ccc3occ(-c4cccc(F)c4)c3c2)o1,138 to 139
10,CC(=O)NCCCCCCCCCCC(=O)O,62 to 65
11,"CC(C)COC(=O)CC1CC(c2ccc(C#N)cc2)=NO1 (single isomer, unassigned; (-))",98 to 100
12,N#Cc1ccc(OCC(O)CN2CC3CC(C2)CN(C(=O)Oc2ccc(F)cc2)C3)cc1 (centres undefined),145 to 146
13,CCC(=O)NC1C=CCCCC1 (centres undefined),84
14,COc1ccc(-c2ccc(C(=O)Nc3ccc4cc(CN5C(C)(C)CCCC5(C)C)ccc4c3)cc2)cc1,212 to 214
15,CC1=N/C(=C\c2c[nH]c3cc(C)ccc23)C(=O)O1,194 to 196
16,CCCC(=O)c1cnc2c(C)cccc2c1Nc1ccc(OC)cc1C,114 to 115
17,CCn1ncc(OCc2ccc([Si](C)(C)C)cc2)c(Cl)c1=O,122 to 125
18,CCN1c2ccccc2Sc2ccccc21,103 to 104
19,O=C(NCCCCC1CCSS1)NCCCCC1CCSS1 (centres undefined),115 to 116
20,CN1CCN(C2(CNC=O)CCCCC2)CC1,97 to 98
21,NC(=O)c1cn([C@@H](CO)CCn2ccc3ccccc32)cn1,127 to 130
22,[N-]=[N+]=CC(=O)CC1CCCCC1,58 to 62
23,CCCc1c(-c2ccncc2)[nH]c(-c2ccncc2)c1C(=O)OCC,209 to 211

row,SMILES,melting point [°C]
1,C=CCN(CC=C)Cc1nc(-c2ncn3c2[C@@H]2CCN2C(=O)c2c(Cl)cccc2-3)no1,165 to 170
2,COc1nc2c(c(OC)n1)C(c1ccc(O)c(OC)c1)C1=C(COC1=O)N2 (centres undefined),294 to 296
3,Cc1cnc(CCCCNc2ncc(Cc3ccc(C)nc3)c(=O)[nH]2)c(Cl)c1,140 to 142
4,COC1=C(OC)CC(C=C(C#N)C(N)=O)C=C1 (centres undefined),170 to 171
5,O=c1oc2ccc(Cl)cc2c(Cl)c1Cl,133 to 135
6,CN(SC(Cl)(Cl)Cl)c1nc(C(Cl)(Cl)Cl)ns1,106
7,Nc1c(Br)cc(F)c(Cl)c1F,62
8,CCCCc1c(C(=O)OCC)cc(O)c2c(OC)cccc12,80 to 82
9,CCOC(=O)Nc1cc(F)cc(CCCCC(=O)OC)c1,61 to 62
10,CC(C)N(CCC(CCN(C(C)C)C(C)C)(C(N)=O)c1c(Cl)cccc1Cl)C(C)C,168 to 170
11,Cn1c(=O)c(-c2c(Cl)cccc2Cl)cc2cnc(NC3CCCCC3)nc21,242 to 244
12,O=C(Nc1ccc(Cl)cc1)Nc1ccc2[nH]c(C(F)(F)F)nc2c1,264 to 268
13,COc1ccc(C(=O)c2cc(F)ccc2F)c(O)c1,109
14,CCCCCCCCCCCCCCCCCCNC(=O)OCC(CNS(=O)(=O)CCCCl)NC(=O)NC (centres undefined),87 to 90
15,CC12CCC3c4ccc(O)cc4CC(CCCCCO)C3C1C=CC2=O (centres undefined),194 to 196
16,CCCCCCC(O)CNCCO (centres undefined),45
17,NCC1CCN(c2c(F)cc3c(=O)c(C(=O)O)cn(C4CC4)c3c2F)C1 (centres undefined),232 to 235
18,COc1ccc(-c2csc3ccc([N+](=O)[O-])c(C(=O)N4CCOCC4)c23)cc1OC,144
19,c1ccc(-c2ccc3nc(COc4ccc(CCCn5ccnc5)cc4)cn3c2)cc1,106 to 107
20,COC(=O)c1nc(-c2ccc(O)nc2)cc(N)c1Cl,251 to 252
21,CCC(=O)C(CCCCCCOc1ccc2c(c1)OCO2)C(=O)CC,45 to 46
22,CCCN=C(NCCC)c1cc(Cl)ccc1[N+](=O)[O-],63 to 64
23,Cc1cc(Cl)c(-n2nc(C)n(C(F)F)c2=O)cc1O,154 to 156

row,SMILES,melting point [°C]
1,Clc1nc(C2=NCCN2)[nH]c1Cl,260
2,CC(NC(=O)c1cc2ccccc2[nH]1)C(=O)O (racemic),240
3,Cc1nnc2n1-c1ccccc1C(c1ccccc1C(F)(F)F)OC2 (centres undefined),265 to 269
4,Cc1cc(C(=O)O)c(O)cc1C(N)C(=O)O (centres undefined),> 250
5,CCOc1cc2c(cc1OCC)C(c1ccccc1)=NCC(=O)N2,233 to 236
6,Nc1ccccc1CCN1CCCCC1,36 to 38
7,OC1CSC(Oc2cnccc2-c2ccc(C(F)(F)F)cc2)C(O)C1O (centres undefined),204
8,CCOC(=O)c1onc(O)c1C,133 to 134
9,COC(=O)C1C=CCn2c(=O)n(CO)c(=O)n21 (centres undefined),123 to 125
10,CN1CCC(c2c[nH]c3ccc(NC(=O)c4ccoc4)nc23)CC1,105 to 108
11,O=C(O)C1=Cc2ccc(O)cc2CC1,195 to 197
12,CCOC(=O)C(C#N)=CNc1ccc(-c2ccccc2)cn1,119 to 126
13,CN1[C@@H](c2cccc(I)c2)c2ccccc2S1(=O)=O,156
14,CN(C)C(=O)CCC(=O)NC1CCC(CCN2CCC(c3cccc4c3CCO4)CC2)CC1 (centres undefined),205
15,O=C(Nc1ccc(Cl)c(C(F)(F)F)c1)N[C@H]1CC[C@H](O)CC1,203 to 207
16,CCCc1c2nc(C(=O)OC)cc(Br)c2cc2c(=O)cc(C(=O)OCC)oc12,177 to 178
17,Cc1cc([N+](=O)[O-])ccc1NC=O,162
18,CC(=O)Nc1ccc(S(=O)(=O)c2cccc(Cl)c2)cc1,149 to 150
19,C#CC1(O)C=CC2C3CCC4=CC(=O)CCC4(C)C3CCC21C (centres undefined),206
20,COc1cc(OC)nc(NC(=O)NS(=O)(=O)c2ccccc2CN2CN=CN2)n1,219 to 220
21,Cc1nnc2n1-c1sc(C#CCN3C(=O)C(=O)c4ccccc43)cc1C(c1ccccc1Cl)=NC2,185 to 190
22,N#Cc1ccc(C2=NNC(=O)C3CC23)cc1 (centres undefined),265 to 266

# Results, then the compound that gave them:
row,melting point [°C],SMILES
1,142,O=C(OCC1c2ccccc2-c2ccccc21)N1CCC(n2nc(-c3ccccc3)[nH]c2=O)CC1
2,96,OC(CCl)(Cc1ccccc1)c1ccc(-c2ccccc2)cc1 (centres undefined)
3,92 to 94,COC(=O)CNc1cccc(OCc2ccccc2)c1
4,85 to 86,CC(C)c1ccc(C2c3cc(NCc4ccccc4)ccc3OC2(C)C)cc1 (centres undefined)
5,100,CC(C)(C)OC(=O)NCC(=O)N1CCC[C@H]1C(=O)OC[C@H](Cc1ccccc1)Nc1ccc(O)c2c1C(=O)c1c(O)cccc1C2=O
6,124,Cc1cn(-c2cccc(C(=O)CC(=O)Nc3cc(-c4ccc(F)cc4)ccc3NC(=O)OC(C)(C)C)c2)cn1
7,115,O=S(=O)(NCCCN1CCC(Oc2ccc(Cl)c(Cl)c2)CC1)c1ccc(-c2ccccn2)s1
8,315 to 316,Cn1cc(C2=C(c3c4n(c5ccccc35)CCC(C(N)=O)C4)C(=O)NC2=O)c2ccccc21 (centres undefined)
9,191 to 194,CN(C)C=CC(=O)c1c(-c2ccc(C(C)(C)NC(=O)OC(C)(C)C)cc2)ccc2nn(C3CCCCO3)cc12 (centres undefined)
10,150 to 152,CC1(C)OC(=O)C(Oc2ccc3sccc3c2)=C1c1ccc(S(C)(=O)=O)cc1
11,190 to 192,CC(=O)Oc1ccc(Br)cc1Cc1cc(Cl)cc(Cc2cc(Br)ccc2O)c1OC(C)=O
12,224,COC(=O)c1cc(-c2c(OC)cccc2OC)n(-c2ccc(NS(=O)(=O)c3ccc(C)cc3)cc2CC(C)C)n1
13,151,CCOc1nc(CC)c(CNC(=O)C(S)CC(C)C)n1Cc1ccc(-c2ccccc2C(=O)O)cc1F (centres undefined)
14,190 to 191,CCNC(=O)c1ccc(CN2C(=O)C3(COc4cc5c(cc43)CCO5)c3ccccc32)cc1 (centres undefined)
15,75 to 79,CC(C)(C)OC(=O)N1CCC[C@H](C(=O)c2ccccc2)C1
16,269,CC(=O)Nc1cccc2c1C(=O)c1c-2n[nH]c1-c1cccs1

row,melting point [°C],SMILES
1,160 to 164,O=C(NN1CCCCC1)C1=NN(c2ccc(Cl)cc2Cl)C(c2ccccc2)C1 (centres undefined)
2,> 275,CCOC(=O)Nc1nc(C)c(-c2nc3ccccc3c(=O)n2-c2ccc(C(C)=O)cc2)s1
3,208 to 210,Cc1oc(-c2ccccc2)nc1CCc1ccc(/C=C/C=C/C=C2OC(=O)NC2=O)cc1
4,116 to 118,N#CC1(CCc2ccccc2)CCCCCN1C(=O)c1ccccc1 (centres undefined)
5,198 to 200,COc1cc(C=CC(=O)Nc2cnc3c(C)cc(C)cc3c2-c2ccccc2Cl)cc(OC)c1OC
6,152 to 155,COc1cc(-c2csc(NS(=O)(=O)c3ccccc3)n2)ccc1OCc1ccccc1
7,178 to 180,Nc1sc2c(c1C(=O)c1ccc3ccccc3c1)CCC2
8,143 to 145,Cc1ccccc1C1SC2(CCN(CCCC(=O)c3ccc(F)cc3)CC2)c2ccccc21 (centres undefined)
9,186 to 191,O=c1c(-c2ccccc2)c(Cn2cnc3ccccc32)oc2ccccc12
10,147,Cc1nc(N)n(C)c(=O)c1CCN1CCC(Cc2nc3ccccc3n2Cc2ccc(F)cc2)CC1
11,126,O=C(NCCc1ccc(Cl)cc1)C1Cc2ccccc2N1S(=O)(=O)c1ccc(-c2ccc(F)cc2)cc1 (centres undefined)
12,165 to 166,CN(C)c1cc2c(cc1OCc1ccccc1)CCC1C2CCC2(C)C(=O)CCC12 (centres undefined)
13,188 to 189,CCCCCCCNC(=O)Nc1ccc(OCC)cc1C(=O)NCC1CCN(C(c2ccccc2)c2ccccc2)CC1
14,229 to 232,CSCC(C)NC(=O)c1c(I)cccc1C(=O)Nc1ccc(C2(c3ccc(Cl)cc3)CC2(F)F)cc1C (centres undefined)
15,262 to 285,CC(O)c1cnc2c(-c3cc(-c4ccccc4)cs3)cnn2c1O (centres undefined)

# — a melting point compilation (Tetko et al.; mined from patent text by program, amines drawn as free bases though some values may be those of a salt)
